Data from patent US9556121B2, “Pyridyloxyalkyl carboxamides and use thereof as endoparasiticides and nematicides” (BAYER CROPSCIENCE AG, priority 2012, dated 2017).

Columns and labels:
Format in all cases: in vivo
Haemonchus contortus = Haemonchus contortus test (HAEMCO), larval kill; conditions: for effect (kill in %): application rate 20 ppm, after 5 days, about 40 larvae; for inhibition at 20 ppm: Haemonchus contortus, 120 h, HAEMCO, 5 dat
Experimental: Haemonchus contortus Test (HAEMCO)
(§1) Solvent: dimethyl sulphoxide
(§2) To produce a suitable preparation of active compound, 10 mg of active compound are mixed with 0.5 ml of dimethyl sulphoxide, and the concentrate is diluted with Ringer solution to the desired concentration.
Vessels containing the active compound preparation of the desired concentration are populated with about 40 larvae of the red stomach worm (Haemonchus contortus).
(§3) After 5 days, the kill in % is determined. 100% means that all of the larvae have been killed; 0% means that none of the larvae have been killed.

Cooperia curticei = Cooperia curticei test (COOPCU), larval kill; conditions: for effect (kill in %): after 5 days, about 40 nematode larvae; for inhibition at 20 ppm: Cooperia curticei, 120 h, COOPCU, 5 dat
Experimental: Cooperia curticei Test (COOPCU)
as §1, §2
Vessels containing the active compound preparation of the desired concentration are populated with about 40 nematode larvae (Cooperia curticei).
as §3

Meloidogyne incognita = Meloidogyne incognita test (MELGIN), gall formation on lettuce; conditions: application rate 20 ppm, after 14 days, sand, egg/larvae suspension
Experimental: Meloidogyne incognita Test (MELGIN)
Solvent: 125.0 parts by weight of acetone
To prepare a suitable active compound preparation, 1 part by weight of active compound is mixed with the stated amount of solvent and the concentrate is diluted with water to the desired concentration.
Vessels are filled with sand, active compound solution, an egg/larvae suspension of the root-knot nematode (Meloidogyne incognita) and lettuce seeds. The lettuce seeds germinate and the plants develop. On the roots, galls are formed.
After 14 days, the nematicidal effect in % is determined by the formation of galls. 100% means that no galls have been found; 0% means that the number of galls on the treated plants corresponds to the untreated control.

Row | Structure (SMILES) | effect (kill in %) (Haemonchus contortus) [%] | effect (kill in %) (Cooperia curticei; application rate 20 ppm) [%] | further results
1 | O=C(NCCOc1ncc(C(F)(F)F)cc1Cl)c1ccccc1C(F)(F)F [1-1] | 100 | 100 | 
2 | O=C(NCCOc1ncc(C(F)(F)F)cc1Cl)c1ccccc1C(F)F [1-2] | 100 |  | 
3 | CC(COc1ncc(C(F)(F)F)cc1Cl)NC(=O)c1ccccc1C(F)(F)F (stereo not shown) [1-4] | 90 | 100 | inhibition at 20 ppm (Haemonchus contortus): 90%; inhibition at 20 ppm (Cooperia curticei): 100%
4 | O=C(NCCOc1ncc(Cl)cc1Cl)c1ccccc1F [1-15] | 80 |  | 
5 | O=C(NCCOc1ncc(Cl)cc1Cl)c1ccccc1Cl [1-16] | 100 |  | 
6 | O=C(NCCOc1ncc(Cl)cc1Cl)c1ccccc1I [1-18] | 100 |  | nematicidal effect in % (formation of galls) (Meloidogyne incognita): 80%
7 | O=C(NCCOc1ncc(Cl)cc1Cl)c1c(F)cccc1F [1-19] | 90 |  | 
8 | O=C(NCCOc1ncc(Cl)cc1Cl)c1ccccc1C(F)(F)F [1-20] | 100 |  | 
9 | O=C(NCCOc1ncc(Cl)cc1Cl)c1sccc1I [1-22] | 100 |  | 
10 | O=C(NCCOc1ncc(Cl)cc1Cl)c1sccc1Cl [1-23] | 80 |  | 
11 | CC(CNC(=O)c1ccccc1C(F)(F)F)Oc1ncc(C(F)(F)F)cc1Cl (stereo not shown) [1-25] | 100 | 90 | 
12 | O=C(NCCOc1ncc(C(F)(F)F)cc1Cl)c1ccccc1Cl [1-26] | 100 | 80 | 
13 | O=C(NCCOc1ncc(C(F)(F)F)cc1Cl)c1ccccc1Br [1-27] | 100 | 90 | 
14 | O=C(NCCOc1ncc(C(F)(F)F)cc1Cl)c1ccccc1I [1-28] | 100 | 100 | 
15 | Cc1ccccc1C(=O)NCCOc1ncc(C(F)(F)F)cc1Cl [1-29] | 80 | 80 | 
16 | O=C(NCCOc1ccc(Cl)cn1)c1ccccc1Br [1-33] | 80 |  | 
17 | O=C(NCCOc1ccc(Cl)cn1)c1ccccc1I [1-34] | 90 |  | 
18 | O=C(NCCOc1ccc(Cl)cn1)c1c(F)cccc1F [1-35] | 80 |  | effect (kill in %) (Cooperia curticei; application rate 100 ppm): 80%
19 | O=C(NCCOc1ccc(Cl)cn1)c1ccccc1C(F)(F)F [1-36] | 80 |  | effect (kill in %) (Cooperia curticei; application rate 100 ppm): 90%
20 | O=C(NCCOc1ccc(C(F)(F)F)cn1)c1ccccc1Cl [1-42] | 80 |  | 
21 | O=C(NCCOc1ccc(C(F)(F)F)cn1)c1ccccc1Br [1-43] | 90 |  | 
22 | O=C(NCCOc1ccc(C(F)(F)F)cn1)c1ccccc1I [1-44] | 100 |  | 
23 | O=C(NCCOc1ccc(C(F)(F)F)cn1)c1c(F)cccc1F [1-45] | 90 |  | effect (kill in %) (Cooperia curticei; application rate 100 ppm): 80%
24 | O=C(NCCOc1ccc(C(F)(F)F)cn1)c1ccccc1C(F)(F)F [1-46] | 100 |  | 
25 | O=C(NCCOc1ccc(C(F)(F)F)cn1)c1sccc1I [1-48] |  | 80 | 

Row | Structure (SMILES) | effect (kill in %) (Haemonchus contortus) [%] | effect (kill in %) (Cooperia curticei; application rate 20 ppm) [%] | further results
26 | O=C(NCCOc1ccc(C(F)(F)F)cn1)c1sccc1Cl [1-49] |  |  | nematicidal effect in % (formation of galls) (Meloidogyne incognita): 90%
27 | O=C(NCCOc1ncc(C(F)(F)F)cc1Cl)c1c(F)cccc1F [1-52] | 90 |  | 
28 | O=C(NCCOc1ncc(C(F)(F)F)cc1Cl)c1ccccc1[N+](=O)[O-] [1-53] | 100 |  | 
29 | O=C(NCCOc1ccc(C(F)(F)F)cn1)c1cccnc1C(F)(F)F [1-57] | 80 |  | 
30 | O=C(NCCOc1ncc(C(F)(F)F)cc1Cl)c1cccnc1C(F)(F)F [1-63] | 90 | 80 | nematicidal effect in % (formation of galls) (Meloidogyne incognita): 90%
31 | CC(C)(COc1ccc(C(F)(F)F)cn1)NC(=O)c1ccccc1C(F)(F)F [1-78] | 80 | 80 | 
32 | CC(C)(COc1ncc(Cl)cc1Cl)NC(=O)c1ccccc1C(F)(F)F [1-82] | 90 | 90 | 
33 | O=C(NCCOc1ncc(F)cc1F)c1c(F)cccc1F [1-133] |  |  | nematicidal effect in % (formation of galls) (Meloidogyne incognita): 90%
34 | O=C(NCCOc1ncc(F)cc1F)c1ccccc1C(F)(F)F [1-134] |  |  | nematicidal effect in % (formation of galls) (Meloidogyne incognita): 90%
35 | O=C(NCCOc1ncc(F)cc1F)c1ccccc1I [1-141] |  |  | nematicidal effect in % (formation of galls) (Meloidogyne incognita): 90%
36 | COc1ncccc1C(=O)NCCOc1ncc(C(F)(F)F)cc1Cl [1-155] | 100 | 80 | 
37 | N#Cc1cnc(OCCNC(=O)c2ccccc2C(F)(F)F)c(F)c1 [1-164] | 90 | 90 | nematicidal effect in % (formation of galls) (Meloidogyne incognita): 100%
38 | O=C(NC1(COc2ncc(C(F)(F)F)cc2Cl)CC1)c1c(F)cccc1F [1-167] | 80 |  | 
39 | O=C(NC1(COc2ccc(C(F)(F)F)cn2)CC1)c1c(F)cccc1F [1-168] | 90 | 100 | 
40 | O=C(NC1(COc2ncc(C(F)(F)F)cc2Cl)CC1)c1ccccc1C(F)(F)F [1-169] | 80 | 80 | 
41 | O=C(NC1(COc2ncc(C(F)(F)F)cc2Cl)CC1)c1ccccc1I [1-170] | 100 | 100 | nematicidal effect in % (formation of galls) (Meloidogyne incognita): 100%
42 | O=C(NC1(COc2ccc(C(F)(F)F)cn2)CC1)c1ccccc1C(F)(F)F [1-173] | 100 | 100 | 
43 | O=C(NC1(COc2ccc(C(F)(F)F)cn2)CC1)c1ccccc1Br [1-176] | 90 | 90 | 
44 | O=C(NC1(COc2ccc(C(F)(F)F)cn2)CC1)c1cccnc1Cl [1-177] |  |  | nematicidal effect in % (formation of galls) (Meloidogyne incognita): 90%
45 | N#Cc1cnc(OCCNC(=O)c2c(F)cccc2F)c(F)c1 [1-189] |  |  | nematicidal effect in % (formation of galls) (Meloidogyne incognita): 90%
46 | O=C(NC1(COc2ncc(C(F)(F)F)cc2Cl)CC1)c1ccccc1[N+](=O)[O-] [1-195] | 80 |  | 
47 | O=C(NC1(COc2ccc(C(F)(F)F)cn2)CC1)c1ccccc1[N+](=O)[O-] [1-196] | 90 |  | 
48 | CC(COc1ncc(C(F)(F)F)cc1Cl)NC(=O)c1cn(C)nc1C(F)F (stereo not shown) [1.239, reference compound] |  |  | inhibition at 20 ppm (Haemonchus contortus): 0%; inhibition at 20 ppm (Cooperia curticei): 0%
49 | CC(COc1ccc(Cl)cc1Cl)NC(=O)c1ccccc1C(F)(F)F (stereo not shown) [4-2, reference compound] |  |  | inhibition at 20 ppm (Cooperia curticei): 0%
